In patent US20220409692A1, “Systems Chemico-Pharmacology Drugs and Methods of Use” (The Medical College of Wisconsin, priority 2019, published 2022):
Peptide text beside a SMILES is read from it.

Legend:
adult mice = test: Review of KYC doses in previous studies in adult mice; type: in vivo, mouse; settings: 15 mg/kg twice per day vs 800 mg/kg
Procedure: No KYC dose-response studies were performed in neonatal rat pups in preparation for the current study. Instead, we decided to treat neonatal rat pups empirically with KYC at 5 mg/kg twice per day based on published and unpublished data in adult mice. […] The dose of KYC used in the current study is based on our experience in treating chronic inflammation in other disease states and is within the range that we consider appropriate for neonatal rat pups and adult rats.

[1] = test system: cultured endothelial cells; settings: added to culture media; cited from earlier work
RLMVEC = test: KYC thiylation of endothelial cell proteins in RLMVEC cultures; type: cell-based, rat
Description: FIG. 29. Effects of Oxidative Stress on KYC Thiylation of RLMVEC Proteins. (A) Streptavidin affinity blot of KYC thiylated proteins from cell lysates prepared from RLMVEC cultures treated with B-KYC (baseline), B-KYC+MPO+H2O2 (MPO-dependent), and B-KYC+H2O2 (H2O2-dependent). (B) Immunoblot for Nrf2 in RLMVEC cultures treated as described in A. (C) Immunoblot for Keap1 in RLMVEC cultures treated as described in A. (D) Immunoblot for HMGB1 in RLMVEC cultures treated as described in A.(E) Immunoblot for β-Actin in RLMVEC cultures treated as described in A.(F) Bar chart showing relative levels of KYC thiylation, Nrf2, Keap1, and HMGB1 as a function of β-Actin (n=2, *=p<0.05, statistical analysis was preformed by ANOVA with appropriate post hoc tests).
FIG. 31. MPO Oxidation of KYC Increases KYC Thiylation of Extracellular HMGB1. […] This conclusion is based on the relative levels of KYC thiylated HMGB1 in panel A vs. KYC thiylated HMGB1 as a function of HMGB1 protein in conditioned media vs. RLMVEC cell lysates.
Rat lung microvascular endothelial cells (RLMVEC) from neonatal Sprague-Dawley rats (RN-6011) and rat endothelial growth medium (EGM, M1266SF) were from Cell Biologics (Chicago, Ill.). Amicon®Ultra-4 centrifugal concentrators with 3K cut-off (UFC800324) were from Merck Millipore Ltd (Carrigtwohill, Ireland). PierceTM Streptavidin (#88816), Protein G (#88848), Protein A Magnetic Beads (#88845), PierceTM ECL Western Blotting Substrate (#32106), and SuperSignalTM West Femto Maximum Sensitivity Substrate (#34095) were from Thermo Fisher Scientific (Waltham, MA). Rabbit antibodies for myeloperoxidase heavy chain (MPO, sc-33596) and TLR4 (sc-10741) were from Santa Cruz Biotechnology (Dallas, Texas). Rabbit antibody for Cl-Tyr (HP5002) was from Hycult Biotech (Plymouth Meeting, PA). The chicken antibody for HMGB1 (326052233) was from SHINO-TEST Corporation (Kanagawa, Japan). Rabbit antibody for RAGE (GTX23611) was from GeneTex (Irvine, CA). Mouse antibodies for PECAM-1/CD31 (ab24590), for 8-OH-dG (ab48508), and for rat endothelial cell antigen-1 (RECA-1, ab9774) were from Abcam (Cambridge, MA). Rabbit antibody for Cox1 (sc-7950) and Cox2 (sc-7951) were from Santa Cruz Biotechnology. Mouse (ab190377) and rabbit (ab77302b) antibodies for HMGB1, and streptavidin-HRP (ab7403) were from Abcam (Cambridge, Mass.). Rabbit antibody for acetylated-HMGB1 (OASG03545) was from Aviva System Biology (San Diego, Calif.). Rabbit antibodies for Nrf2 (sc-722) and TLR4 (sc-30002) were from Santa Cruz Biotechnology (Dallas, Tex.). Rabbit antibody against Keap1 (ABS97) and mouse antibody for β-actin (A2228) were from Millipore-Sigma (St. Louis, Mo.). Rabbit antibody for cysteine sulfonyl (ADI-OSA-820) was from Enzo Life Sciences (Farmingdale, N.Y.). Mouse antibody for glutathionylated proteins (D8) and all other chemicals were from Sigma-Aldrich (St. Louis, Mo.). All antibodies were certified either by the manufacturer or were used previously and certified by the authors, as was the case for the anti-HMGB1 antibody.
Effects of Oxidative Stress on KYC Thiylation on Endothelial Cell Proteins in RLMVEC Cultures: To determine the effects of oxidative stress on KYC thiylation, RLMVEC cultures were treated with B-KYC to follow KYC thiylation with streptavidin-affinity blotting as outlined in Methods. Three different levels of oxidative stress were used to determine the effects of oxidative stress on KYC thiylation of endothelial cell proteins: media alone (baseline); media containing MPO+H2O2 (MPO-dependent); and media containing H2O2 alone (H2O2-dependent) (FIG. 29A). KYC thiylation of RLMVEC proteins at baseline was low (FIG. 29A, first two lanes).

[2] = test system: lung lysates of neonatal rat pups; test: Hyperoxia-induced BPD in neonatal rat pups: immunoblot, affinity blot and pulldown analysis of lung lysates; settings: for Nrf2 activation: lung lysates
Procedure: The dose of KYC (5 mg/kg twice per day) was chosen based on experience treating chronic inflammation in other disease states (58, 60, 61). […] Equal volumes of PBS were injected i.p. into the remaining half of the pups as an injection control. Pups were euthanized on P10 with carbon dioxide and lungs removed en bloc. A small cut was created on the left atrium and ice-cold normal saline was gently infused through the right ventricle to flush blood from the lungs before inflation for histology or snap-frozen in liquid nitrogen for protein studies. Pups from at least three litters were used in each experiment.
Immunoblot Analysis: Whole lung lysates were obtained by homogenizing in MOPS buffer (20 mM 3-N-morpholino-propanesulfonic acid, 2 mM EGTA, 5 mM EDTA, 30 mM NaF, 10 mM β-glycerophosphate, 10 mM Na pyrophosphate, 2 mM Na orthovanadate, 1 mM PMSF, 0.5% NP-40, 1% protease inhibitor cocktail, and 1% phosphatase inhibitor cocktails 2 and 3, pH 7.0) by Bullet Blender (Next Advance, Inc., Averill Park, N.Y.). For protein immunoblots, 30 μg of protein lysate was separated by SDS-PAGE, transferred to nitrocellulose membranes (0.22 μm), and then probed with the appropriate primary antibodies overnight at 4° C. on a continuously rocking platform. Signals were generated after incubation with horseradish peroxidase-conjugated goat anti-rabbit or anti-mouse IgG (1:8,000) using Western Bright ECL Chemiluminescent HRP Substrate (Advansta Inc., Menlo Park, Calif.). Integrated optical density (IOD) was calculated using ImageJ software and normalized to β-actin, a loading control.

[3] = RLMVEC cultures, baseline vs MPO-dependent vs H2O2-dependent
[4] = hyperoxic lungs, KYC vs PBS, P10
[5] = hyperoxic pups treated with KYC, P10, PBS 1.0±0.2
[6] = hyperoxic pups, KYC vs PBS, P10
[7] = lungs of hyperoxic pups, KYC vs PBS

## CC(=O)N[C@@H](CCCCN)C(=O)N[C@@H](Cc1ccc(O)cc1)C(=O)N[C@@H](CS)C(N)=O [KYC, N-acetyl lysyltyrosylcysteine amide] (Ac-Lys-Tyr-Cys-NH2)
Adult mice
  factor by which the higher dose is below the KYC level observed to induce adverse effects: more than 26 times
[1]
  concentration with little to no effect on endothelial cell viability, apoptosis, necrosis, or mitochondrial function: up to 4000 μM
RLMVEC; [3]
  HMGB1 expression relative to β-actin: increased in RLMVEC cultures subjected to H2O2-dependent KYC thiylation
  Keap1 expression relative to β-actin: followed a pattern similar to Nrf2
  Nrf2 expression relative to β-actin: increased in RLMVEC cultures subjected to MPO-dependent KYC thiylation
RLMVEC; conditioned media, no KYC vs KYC vs MPO+H2O2+KYC
  KYC thiylation of HMGB1 released from RLMVEC cultures: greater in RLMVEC cultures incubated with MPO+H2O2+KYC
[2]; KYC-treated HOX group, P10, PBS-treated HOX 1.0±0.1
  CD31 levels (immunoblot, relative): 1.2±0.3
[2]; hyperoxia exposed rat pup lungs
  Nrf2 levels (FIG. 22): decreased Nrf2 levels
[2]; hyperoxia pups, KYC 5 mg/kg twice per day i.p., P10, PBS 1.0±0.1
  NO2-Tyr levels (immunoblot, relative): 0.6±0.2
[2]; hyperoxia pups, KYC 5 mg/kg twice per day i.p., P10, PBS 1.0±0.3
  MPO levels (immunoblot, relative): 0.6±0.1
[2]; hyperoxia-exposed rat pup lungs
  cell death in lungs (FIG. 20): reduces cell death
[2]; [4]
  reduction of Cl-Tyr formation: approximately 27%
  reduction of MPO protein: approximately 50%
  reduction of NO2-Tyr: approximately 32%
[2]; hyperoxic pups treated with KYC, P10, PBS 1.0±0.1
  TLR4 expression in lungs (immunoblot, relative): 0.8±0.2
[2]; [5]
  HMGB1 levels in lungs (immunoblot, relative): 0.6±0.2
  RAGE expression in lungs (immunoblot, relative): 0.5±0.2
[2]; hyperoxic pups, KYC vs PBS
  HMGB1 isoform in lung lysates (non-acetylated vs lysyl-acetylated): shifted the HMGB1 in lung lysates from the non-acetylated (HMGB1) to the lysyl-acetylated (Ac-HMGB1) isoform
  reduction of pulmonary Cox1: 20-30%
  reduction of pulmonary Cox2: 60-70%
[2]; [6]
  decrease of HMGB1 levels in lung homogenates/lysates: approximately 38%
  increase of CD31 (endothelial cells): approximately 23%
  reduction of RAGE expression: 60%
[2]; hyperoxic pups, relative to PBS-treated
  sulfonyl HMGB1 levels: increased sulfonyl HMGB1 levels
[2]; lung lysates from hyperoxic pups
  S-glutathionylation of Keap1: increased
[2]; lung lysates from hyperoxic pups, KYC vs PBS
  HMGB1 association with TLR4 (HMGB1 pulldown): decreased HMGB1 association with TLR4
[2]; lung lysates from hyperoxic pups, KYC P2-P9 then once B-KYC 5 mg/kg
  B-KYC thiylation of Keap1: increased B-KYC thiylation of Keap1
[2]; hyperoxic pups
  Nrf2 activation: increased Nrf2 activation in lung lysates from hyperoxic pups
[2]; normoxic pups
  Nrf2 activation: increased Nrf2 activation in lung lysates
[2]; [7]
  GST expression: increased
  HMGB1 association with RAGE (HMGB1 pulldown): reduced
  HO-1 expression: increased
  Trx expression: increased
